Results filed as inconclusive are left out. Calls of active or inactive are those of the source. The rule behind the calls is not given here.
Experiments:
Test in all cases: viability reduction measured by resazurin – cell-based, Alamar Blue fluorescence, multiple timepoints, mechanism study for HRAS target identification project, profiling panel (AID 652144)
Settings in all cases: Cancer/normal cell panel viability, 8-48 h
U-251 = tested on: U-251
HeLA = tested on: HeLA
HT-29 = tested on: HT-29
LOX-IMVI = tested on: LOX-IMVI
SNB-19 = tested on: SNB-19
HUVEC = tested on: HUVEC
C2C12 = tested on: C2C12
SR = tested on: SR
CCRF-CEM = tested on: CCRF-CEM
SNB-75 = tested on: SNB-75

Compound: CCC(=O)N(c1ccc(OC)c(Cl)c1)C(C(=O)NCCc1ccccc1)c1cccs1 (centres undefined)
- outcome (U-251): inactive
- AC50 (HeLA): > 70000 nM (inactive)
- AC50 (HT-29): > 70000 nM (inactive)
- outcome (LOX-IMVI): inactive
- outcome (SNB-19): inactive

Compound: Cc1onc(C(=O)N2CCN(C(c3ccncc3)c3ccncc3)CC2)c1[N+](=O)[O-]
- outcome (HUVEC): inactive
- outcome (C2C12): inactive
- outcome (SR): inactive
- outcome (CCRF-CEM): inactive
- outcome (U-251): inactive
- outcome (SNB-75): inactive
- outcome (HeLA): inactive
- outcome (HT-29): inactive
- outcome (LOX-IMVI): inactive
- outcome (SNB-19): inactive

Compound: Cc1onc(C(=O)N2CCN(C(c3ccc(Cl)cc3)c3ccc(Cl)cc3)CC2)c1[N+](=O)[O-]
- outcome (HUVEC): inactive
- AC50 (SR): 142 nM
- AC50 (CCRF-CEM): 144 nM
- AC50 (U-251): > 70000 nM (inactive)
- AC50 (SNB-75): 687 nM
- AC50 (HT-29): 963 nM
- AC50 (LOX-IMVI): 103 nM

Compound: COC(=O)c1ccc([C@@H]2c3[nH]c4ccccc4c3C[C@@H](C(=O)OC)N2C(=O)CCl)cc1
- AC50 (C2C12): 101 nM
- AC50 (SR): 32.9 nM
- AC50 (CCRF-CEM): 50.2 nM
- AC50 (U-251): 1060 nM
- AC50 (SNB-75): 355 nM
- AC50 (HeLA): 573 nM
- AC50 (HT-29): 177 nM
- AC50 (LOX-IMVI): 31 nM

Compound: C#CCCCC(=O)NCCOCCOCCOc1ccc(N(C(=O)CCl)C(C(=O)NCCc2ccccc2)c2cccs2)cc1Cl (centres undefined)
- AC50 (C2C12): 5420 nM
- AC50 (SR): 885 nM
- AC50 (CCRF-CEM): 997 nM
- AC50 (U-251): 6810 nM
- AC50 (SNB-75): 3560 nM
- AC50 (HeLA): 4490 nM
- AC50 (HT-29): 2860 nM
- AC50 (LOX-IMVI): 421 nM
- AC50 (SNB-19): 4450 nM

Compound: CC(C)(C)OC(=O)NCCOCCOCCOc1ccc(N(C(=O)CCl)C(C(=O)NCCc2ccccc2)c2cccs2)cc1Cl (centres undefined)
- AC50 (HUVEC): 13700 nM
- AC50 (C2C12): 442 nM
- AC50 (SR): 95.1 nM
- AC50 (CCRF-CEM): 86.5 nM
- AC50 (U-251): 1350 nM
- AC50 (SNB-75): 686 nM
- AC50 (HeLA): 650 nM
- AC50 (HT-29): 457 nM
- AC50 (LOX-IMVI): 83.4 nM
- AC50 (SNB-19): 1720 nM

Compound: COc1ccc(N(C(=O)CCl)C(C(=O)NCCc2ccccc2)c2cccs2)cc1Cl (centres undefined)
- AC50 (HUVEC): 8940 nM
- AC50 (C2C12): 842 nM
- AC50 (SR): 61.8 nM
- AC50 (CCRF-CEM): 78.5 nM
- AC50 (U-251): 896 nM
- AC50 (SNB-75): 286 nM
- AC50 (HeLA): 547 nM
- AC50 (HT-29): 162 nM
- AC50 (LOX-IMVI): 40.5 nM
- AC50 (SNB-19): 1170 nM

Source: PubChem BioAssay AID652144 (Broad Institute, 2013)
